Laboratory results taken from patent publication US12479840B2, “HMG-CoA reductase degradation inducing compound” (Uppthera, priority 2020, dated 2025).
Read-outs that look alike come from different tables or passages of the source.

Biological target: T1, HMG-CoA reductase (Homo sapiens, UniProt P04035)
T1 construct: endogenous in cells; host or cells: HepG2 (Korea Cell Line Bank)
T1 sequence (P04035 1-888): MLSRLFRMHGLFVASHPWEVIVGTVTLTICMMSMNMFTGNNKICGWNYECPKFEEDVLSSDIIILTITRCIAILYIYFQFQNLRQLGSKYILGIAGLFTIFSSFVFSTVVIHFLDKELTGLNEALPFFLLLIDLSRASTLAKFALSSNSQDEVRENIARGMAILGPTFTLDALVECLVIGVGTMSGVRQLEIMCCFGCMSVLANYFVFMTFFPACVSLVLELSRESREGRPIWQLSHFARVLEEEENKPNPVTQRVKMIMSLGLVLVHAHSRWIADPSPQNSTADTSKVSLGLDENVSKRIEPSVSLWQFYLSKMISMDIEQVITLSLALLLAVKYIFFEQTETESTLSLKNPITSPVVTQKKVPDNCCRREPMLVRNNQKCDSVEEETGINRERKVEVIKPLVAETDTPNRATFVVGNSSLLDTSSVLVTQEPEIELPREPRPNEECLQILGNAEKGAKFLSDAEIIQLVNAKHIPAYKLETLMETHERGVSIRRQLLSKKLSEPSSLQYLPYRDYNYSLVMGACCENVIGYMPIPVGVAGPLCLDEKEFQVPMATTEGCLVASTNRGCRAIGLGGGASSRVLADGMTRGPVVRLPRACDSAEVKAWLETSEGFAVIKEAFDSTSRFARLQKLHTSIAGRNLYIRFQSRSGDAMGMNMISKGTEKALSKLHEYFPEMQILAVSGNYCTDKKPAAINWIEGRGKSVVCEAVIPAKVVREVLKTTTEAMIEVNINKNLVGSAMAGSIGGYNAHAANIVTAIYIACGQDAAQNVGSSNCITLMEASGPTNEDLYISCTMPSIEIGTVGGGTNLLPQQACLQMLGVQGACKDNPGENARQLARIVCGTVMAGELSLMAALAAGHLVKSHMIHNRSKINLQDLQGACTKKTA
Assay: HMG-CoA reductase (HMGCR) degradation in HepG2 cells by western blotting
Format: cell-based
Settings: treated for 18 hours, ratio of HMG-CoA reductase to GAPDH
Method in brief: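 Western blot read-out: HMGCR protein probed (1:500, 16 hours at 4° C) alongside GAPDH loading control on 15 μg BCA-normalised RIPA lysates. Lysates came from HepG2 cells (P105–P110) exposed for 18 hours to a 10-point, three-fold series starting at 3 μM.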

DC50 (read-out: DC50) [µM] | Compound | DC50 [µM]
< 0.05 | Cc1ncsc1-c1ccc(CNC(=O)[C@@H]2C[C@@H](O)CN2C(=O)[C@@H](NC(=O)C2(F)CC2)C(C)(C)C)c(OCCOCCNC(=O)O[C@H]2C[C@@H](C)C=C3C=C[C@H](C)[C@H](CC[C@@H]4C[C@@H](O)CC(=O)O4)[C@H]32)c1 [Compound 23, (1S,3R,7S,8S,8aR)-8-(2-((2R,4R)-4-hydroxy-6-oxotetrahydro-2H-pyran-2-yl)ethyl)-3,7-dimethyl-1,2,3,7,8,8a-hexahydronaphthalen-1-yl (2-(2-(2-(((2S,4R)-1-((S)-2-(1-fluorocyclopropane-1-carboxamido)-3,3-dimethylbutanoyl)-4-hydroxypyrrolidine-2-carboxamido)methyl)-5-(4-methylthiazol-5-yl)phenoxy)ethoxy)ethyl)carbamate] | –
< 0.05 | Cc1ncsc1-c1ccc(CNC(=O)[C@@H]2C[C@@H](O)CN2C(=O)[C@@H](NC(=O)C2(F)CC2)C(C)(C)C)c(OCCOCCOCCNC(=O)O[C@H]2C[C@@H](C)C=C3C=C[C@H](C)[C@H](CC[C@@H]4C[C@@H](O)CC(=O)O4)[C@H]32)c1 [Compound 24, (1S,3R,7S,8S,8aR)-8-(2-((2R,4R)-4-hydroxy-6-oxotetrahydro-2H-pyran-2-yl)ethyl)-3,7-dimethyl-1,2,3,7,8,8a-hexahydronaphthalen-1-yl (2-(2-(2-(2-(((2S,4R)-1-((S)-2-(1-fluorocyclopropane-1-carboxamido)-3,3-dimethylbutanoyl)-4-hydroxypyrrolidine-2-carboxamido)methyl)-5-(4-methylthiazol-5-yl)phenoxy)ethoxy)ethoxy)ethyl)carbamate] | –
< 0.05 | Cc1ncsc1-c1ccc(CNC(=O)[C@@H]2C[C@@H](O)CN2C(=O)[C@@H](NC(=O)C2(F)CC2)C(C)(C)C)c(OCCOCCOCCOCCNC(=O)O[C@H]2C[C@@H](C)C=C3C=C[C@H](C)[C@H](CC[C@@H]4C[C@@H](O)CC(=O)O4)[C@H]32)c1 [Compound 25, (1S,3R,7S,8S,8aR)-8-(2-((2R,4R)-4-hydroxy-6-oxotetrahydro-2H-pyran-2-yl)ethyl)-3,7-dimethyl-1,2,3,7,8,8a-hexahydronaphthalen-1-yl (2-(2-(2-(2-(2-(((2S,4R)-1-((S)-2-(1-fluorocyclopropane-1-carboxamido)-3,3-dimethylbutanoyl)-4-hydroxypyrrolidine-2-carboxamido)methyl)-5-(4-methylthiazol-5-yl)phenoxy)ethoxy)ethoxy)ethoxy)ethyl)carbamate] | –
< 0.05 | Cc1ncsc1-c1ccc(CNC(=O)[C@@H]2C[C@@H](O)CN2C(=O)[C@@H](NC(=O)C2(F)CC2)C(C)(C)C)c(OCCOCCOCCOCCOCCNC(=O)O[C@H]2C[C@@H](C)C=C3C=C[C@H](C)[C@H](CC[C@@H]4C[C@@H](O)CC(=O)O4)[C@H]32)c1 [Compound 26, (1S,3R,7S,8S,8aR)-8-(2-((2R,4R)-4-hydroxy-6-oxotetrahydro-2H-pyran-2-yl)ethyl)-3,7-dimethyl-1,2,3,7,8,8a-hexahydronaphthalen-1-yl (14-(2-(((2S,4R)-1-((S)-2-(1-fluorocyclopropane-1-carboxamido)-3,3-dimethylbutanoyl)-4-hydroxypyrrolidine-2-carboxamido)methyl)-5-(4-methylthiazol-5-yl)phenoxy)-3,6,9,12-tetraoxatetradecyl)carbamate] | –

The next lines start with the compound.

Compound | DC50 (read-out: DC50) [µM] | DC50 [µM]
Cc1ncsc1-c1ccc(CNC(=O)[C@@H]2C[C@@H](O)CN2C(=O)[C@@H](NC(=O)COCCOCCOCCOCCOCCNC(=O)O[C@H]2C[C@@H](C)C=C3C=C[C@H](C)[C@H](CC[C@@H]4C[C@@H](O[Si](C)(C)C(C)(C)C)CC(=O)O4)[C@H]32)C(C)(C)C)cc1 [Compound 22, (1S,3R,7S,8S,8aR)-8-(2-((2R,4R)-4-((tert-butyldimethylsilyl)oxy)-6-oxotetrahydro-2H-pyran-2-yl)ethyl)-3,7-dimethyl-1,2,3,7,8,8a-hexahydronaphthalen-1-yl ((S)-19-((2S,4R)-4-hydroxy-2-((4-(4-methylthiazol-5-yl)benzyl)carbamoyl)pyrrolidine-1-carbonyl)-20,20-dimethyl-17-oxo-3,6,9,12,15-pentaoxa-18-azahenicosyl)carbamate] | < 0.05 | –
Cc1ncsc1-c1ccc(CNC(=O)[C@@H]2C[C@@H](O)CN2C(=O)[C@@H](NC(=O)C2(F)CC2)C(C)(C)C)c(OCCOCCNC(=O)O[C@H]2C[C@@H](C)C=C3C=C[C@H](C)[C@H](CC[C@@H]4C[C@@H](O[Si](C)(C)C(C)(C)C)CC(=O)O4)[C@H]32)c1 [Compound 27, (1S,3R,7S,8S,8aR)-8-(2-((2R,4R)-4-((tert-butyldimethylsilyl)oxy)-6-oxotetrahydro-2H-pyran-2-yl)ethyl)-3,7-dimethyl-1,2,3,7,8,8a-hexahydronaphthalen-1-yl (2-(2-(2-(((2S,4R)-1-((S)-2-(1-fluorocyclopropane-1-carboxamido)-3,3-dimethylbutanoyl)-4-hydroxypyrrolidine-2-carboxamido)methyl)-5-(4-methylthiazol-5-yl)phenoxy)ethoxy)ethyl)carbamate] | < 0.05 | –
Cc1ncsc1-c1ccc(CNC(=O)[C@@H]2C[C@@H](O)CN2C(=O)[C@@H](NC(=O)C2(F)CC2)C(C)(C)C)c(OCCOCCOCCNC(=O)O[C@H]2C[C@@H](C)C=C3C=C[C@H](C)[C@H](CC[C@@H]4C[C@@H](O[Si](C)(C)C(C)(C)C)CC(=O)O4)[C@H]32)c1 [Compound 28, (1S,3R,7S,8S,8aR)-8-(2-((2R,4R)-4-((tert-butyldimethylsilyl)oxy)-6-oxotetrahydro-2H-pyran-2-yl)ethyl)-3,7-dimethyl-1,2,3,7,8,8a-hexahydronaphthalen-1-yl (2-(2-(2-(2-(((2S,4R)-1-((S)-2-(1-fluorocyclopropane-1-carboxamido)-3,3-dimethylbutanoyl)-4-hydroxypyrrolidine-2-carboxamido)methyl)-5-(4-methylthiazol-5-yl)phenoxy)ethoxy)ethoxy)ethyl)carbamate] | – | < 0.05
Cc1ncsc1-c1ccc(CNC(=O)[C@@H]2C[C@@H](O)CN2C(=O)[C@@H](NC(=O)C2(F)CC2)C(C)(C)C)c(OCCOCCOCCOCCNC(=O)O[C@H]2C[C@@H](C)C=C3C=C[C@H](C)[C@H](CC[C@@H]4C[C@@H](O[Si](C)(C)C(C)(C)C)CC(=O)O4)[C@H]32)c1 [Compound 29, (1S,3R,7S,8S,8aR)-8-(2-((2R,4R)-4-((tert-butyldimethylsilyl)oxy)-6-oxotetrahydro-2H-pyran-2-yl)ethyl)-3,7-dimethyl-1,2,3,7,8,8a-hexahydronaphthalen-1-yl (2-(2-(2-(2-(2-(((2S,4R)-1-((S)-2-(1-fluorocyclopropane-1-carboxamido)-3,3-dimethylbutanoyl)-4-hydroxypyrrolidine-2-carboxamido)methyl)-5-(4-methylthiazol-5-yl)phenoxy)ethoxy)ethoxy)ethoxy)ethyl)carbamate] | – | 0.05 to 0.5
Cc1ncsc1-c1ccc(CNC(=O)[C@@H]2C[C@@H](O)CN2C(=O)[C@@H](NC(=O)C2(F)CC2)C(C)(C)C)c(OCCOCCOCCOCCOCCNC(=O)O[C@H]2C[C@@H](C)C=C3C=C[C@H](C)[C@H](CC[C@@H]4C[C@@H](O[Si](C)(C)C(C)(C)C)CC(=O)O4)[C@H]32)c1 [Compound 30, (1S,3R,7S,8S,8aR)-8-(2-((2R,4R)-4-((tert-butyldimethylsilyl)oxy)-6-oxotetrahydro-2H-pyran-2-yl)ethyl)-3,7-dimethyl-1,2,3,7,8,8a-hexahydronaphthalen-1-yl (14-(2-(((2S,4R)-1-((S)-2-(1-fluorocyclopropane-1-carboxamido)-3,3-dimethylbutanoyl)-4-hydroxypyrrolidine-2-carboxamido)methyl)-5-(4-methylthiazol-5-yl)phenoxy)-3,6,9,12-tetraoxatetradecyl)carbamate] | – | 0.05 to 0.5
CN[C@@H](C)C(=O)N[C@H](C(=O)N1CCC[C@H]1c1nc(C(=O)c2cccc(OCCOCCOCCNC(=O)O[C@H]3C[C@@H](C)C=C4C=C[C@H](C)[C@H](CC[C@@H]5C[C@@H](O)CC(=O)O5)[C@H]43)c2)cs1)C1CCCCC1 [Compound 31, (1S,3R,7S,8S,8aR)-8-(2-((2R,4R)-4-hydroxy-6-oxotetrahydro-2H-pyran-2-yl)ethyl)-3,7-dimethyl-1,2,3,7,8,8a-hexahydronaphthalen-1-yl (2-(2-(2-(3-(2-((S)-1-((S)-2-cyclohexyl-2-((S)-2-(methylamino)propanamido)acetyl)pyrrolidin-2-yl)thiazole-4-carbonyl)phenoxy)ethoxy)ethoxy)ethyl)carbamate] | < 0.05 | –
